# Test results published in PubChem BioAssay (NCI).
#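 Five concentrations, 48 hours, 96-well plates. At the TGI there is no net growth.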
# How the values were obtained:
# Assay in all cases: NCI tumour cell line growth inhibition, 48 h
# EKVX NSCLC = test system: EKVX NSCLC
# SN12C renal = test system: SN12C renal
# HL-60(TB) leukemia = test system: HL-60(TB) leukemia
# NCI-H23 lung = test system: NCI-H23 lung
# SK-OV-3 ovarian = test system: SK-OV-3 ovarian
# A549 NSCLC = test system: A549 NSCLC
# DLD-1 colon = test system: DLD-1 colon
# MALME-3M melanoma = test system: MALME-3M melanoma
# CAKI-1 renal = test system: CAKI-1 renal
# SNB-75 CNS = test system: SNB-75 CNS
# TK-10 renal = test system: TK-10 renal
# HOP-62 NSCLC = test system: HOP-62 NSCLC
# M14 melanoma = test system: M14 melanoma
# LXFL 529 NSCLC = test system: LXFL 529 NSCLC
# MOLT-4 leukemia = test system: MOLT-4 leukemia
# 786-0 renal = test system: 786-0 renal
# M19-MEL melanoma = test system: M19-MEL melanoma
# OVCAR-5 ovarian = test system: OVCAR-5 ovarian
# RPMI-8226 leukemia = test system: RPMI-8226 leukemia
# UACC-62 melanoma = test system: UACC-62 melanoma
# DMS 114 small cell lung = test system: DMS 114 small cell lung
# SR leukemia = test system: SR leukemia
# HCT-15 colon = test system: HCT-15 colon
# SK-MEL-28 melanoma = test system: SK-MEL-28 melanoma
# UO-31 renal = test system: UO-31 renal
# NCI-H226 lung = test system: NCI-H226 lung
# LOX IMVI melanoma = test system: LOX IMVI melanoma
# U251 CNS = test system: U251 CNS
# OVCAR-3 ovarian = test system: OVCAR-3 ovarian
# DMS 273 small cell lung = test system: DMS 273 small cell lung
# SW-620 colon = test system: SW-620 colon
# SK-MEL-2 melanoma = test system: SK-MEL-2 melanoma
# SNB-19 CNS = test system: SNB-19 CNS
# HOP-18 NSCLC = test system: HOP-18 NSCLC
# KM20L2 colon = test system: KM20L2 colon
# SF-268 CNS = test system: SF-268 CNS
# NCI-H522 lung = test system: NCI-H522 lung
# HCC-2998 colon = test system: HCC-2998 colon
# K-562 leukemia = test system: K-562 leukemia
# RXF 393 renal = test system: RXF 393 renal
# ACHN renal = test system: ACHN renal
# OVCAR-8 ovarian = test system: OVCAR-8 ovarian
# HCT-116 colon = test system: HCT-116 colon
# UACC-257 melanoma = test system: UACC-257 melanoma
# SF-295 CNS = test system: SF-295 CNS
# HT29 colon = test system: HT29 colon
# A498 renal = test system: A498 renal
# KM12 colon = test system: KM12 colon
# COLO 205 colon = test system: COLO 205 colon
# OVCAR-4 ovarian = test system: OVCAR-4 ovarian
# IGROV1 ovarian = test system: IGROV1 ovarian
# SK-MEL-5 melanoma = test system: SK-MEL-5 melanoma
# RXF-631 renal = test system: RXF-631 renal
# HOP-92 NSCLC = test system: HOP-92 NSCLC
# NCI-H460 lung = test system: NCI-H460 lung
# XF 498 CNS = test system: XF 498 CNS
# SNB-78 CNS = test system: SNB-78 CNS
# SF-539 CNS = test system: SF-539 CNS
# CCRF-CEM leukemia = test system: CCRF-CEM leukemia
smiles,measurement,setting,value
Cc1ccccc1NC(=O)/C=N/O,TGI,EKVX NSCLC,39.6 µM
same,TGI,SN12C renal,> 100 µM
same,TGI,HL-60(TB) leukemia,48.5 µM
same,TGI,NCI-H23 lung,> 100 µM
same,TGI,SK-OV-3 ovarian,> 100 µM
same,TGI,A549 NSCLC,> 100 µM
same,TGI,DLD-1 colon,> 100 µM
same,TGI,MALME-3M melanoma,> 100 µM
same,TGI,CAKI-1 renal,> 100 µM
same,TGI,SNB-75 CNS,> 100 µM
same,TGI,TK-10 renal,> 100 µM
same,TGI,HOP-62 NSCLC,> 100 µM
same,TGI,M14 melanoma,> 100 µM
same,TGI,LXFL 529 NSCLC,> 100 µM
same,TGI,MOLT-4 leukemia,> 100 µM
same,TGI,786-0 renal,> 100 µM
same,TGI,M19-MEL melanoma,> 100 µM
same,TGI,OVCAR-5 ovarian,> 100 µM
same,TGI,RPMI-8226 leukemia,> 100 µM
same,TGI,UACC-62 melanoma,27.9 µM
same,TGI,DMS 114 small cell lung,> 100 µM
same,TGI,SR leukemia,> 100 µM
same,TGI,HCT-15 colon,> 100 µM
same,TGI,SK-MEL-28 melanoma,> 100 µM
same,TGI,UO-31 renal,> 100 µM
same,TGI,NCI-H226 lung,> 100 µM
same,TGI,LOX IMVI melanoma,> 100 µM
same,TGI,U251 CNS,> 100 µM
same,TGI,OVCAR-3 ovarian,> 100 µM
same,TGI,DMS 273 small cell lung,> 100 µM
same,TGI,SW-620 colon,> 100 µM
same,TGI,SK-MEL-2 melanoma,> 100 µM
same,TGI,SNB-19 CNS,> 100 µM
same,TGI,HOP-18 NSCLC,> 100 µM
same,TGI,KM20L2 colon,32 µM
same,TGI,SF-268 CNS,> 100 µM
same,TGI,NCI-H522 lung,> 100 µM
same,TGI,HCC-2998 colon,> 100 µM
same,TGI,K-562 leukemia,> 100 µM
same,TGI,RXF 393 renal,> 100 µM
same,TGI,ACHN renal,> 100 µM
same,TGI,OVCAR-8 ovarian,> 100 µM
same,TGI,HCT-116 colon,> 100 µM
same,TGI,UACC-257 melanoma,> 100 µM
same,TGI,SF-295 CNS,> 100 µM
same,TGI,HT29 colon,> 100 µM
same,TGI,A498 renal,> 100 µM
same,TGI,KM12 colon,> 100 µM
same,TGI,COLO 205 colon,> 100 µM
same,TGI,OVCAR-4 ovarian,> 100 µM
same,TGI,IGROV1 ovarian,> 100 µM
same,TGI,SK-MEL-5 melanoma,> 100 µM
Cn1c(=O)nc2n(-c3ccc(Cl)cc3)c(-c3ccccc3)c(-c3ccccc3)nc-2c1=O,TGI,EKVX NSCLC,> 100 µM
same,TGI,RXF-631 renal,> 100 µM
same,TGI,HOP-92 NSCLC,84.5 µM
same,TGI,SN12C renal,> 100 µM
same,TGI,HL-60(TB) leukemia,58.6 µM
same,TGI,NCI-H23 lung,> 100 µM
same,TGI,SK-OV-3 ovarian,> 100 µM
same,TGI,A549 NSCLC,> 100 µM
same,TGI,DLD-1 colon,> 100 µM
same,TGI,NCI-H460 lung,62.5 µM
same,TGI,MALME-3M melanoma,> 100 µM
same,TGI,CAKI-1 renal,> 100 µM
same,TGI,SNB-75 CNS,> 100 µM
same,TGI,TK-10 renal,> 100 µM
same,TGI,HOP-62 NSCLC,66.7 µM
same,TGI,M14 melanoma,45.5 µM
same,TGI,LXFL 529 NSCLC,> 100 µM
same,TGI,MOLT-4 leukemia,53.4 µM
same,TGI,786-0 renal,> 100 µM
same,TGI,OVCAR-5 ovarian,> 100 µM
same,TGI,RPMI-8226 leukemia,71.1 µM
same,TGI,UACC-62 melanoma,32.5 µM
same,TGI,DMS 114 small cell lung,> 100 µM
same,TGI,HCT-15 colon,> 100 µM
same,TGI,SK-MEL-28 melanoma,86.2 µM
same,TGI,XF 498 CNS,42.2 µM
same,TGI,UO-31 renal,60.7 µM
same,TGI,NCI-H226 lung,58.8 µM
same,TGI,SNB-78 CNS,> 100 µM
same,TGI,U251 CNS,> 100 µM
same,TGI,OVCAR-3 ovarian,82.1 µM
same,TGI,DMS 273 small cell lung,59.3 µM
same,TGI,SW-620 colon,> 100 µM
same,TGI,SK-MEL-2 melanoma,60 µM
same,TGI,SNB-19 CNS,> 100 µM
same,TGI,HOP-18 NSCLC,> 100 µM
same,TGI,KM20L2 colon,> 100 µM
same,TGI,SF-268 CNS,> 100 µM
same,TGI,NCI-H522 lung,> 100 µM
same,TGI,HCC-2998 colon,> 100 µM
same,TGI,K-562 leukemia,> 100 µM
same,TGI,ACHN renal,49.8 µM
same,TGI,OVCAR-8 ovarian,> 100 µM
same,TGI,SF-539 CNS,71.5 µM
same,TGI,UACC-257 melanoma,66.9 µM
same,TGI,SF-295 CNS,> 100 µM
same,TGI,HT29 colon,> 100 µM
same,TGI,A498 renal,> 100 µM
same,TGI,KM12 colon,> 100 µM
same,TGI,COLO 205 colon,> 100 µM
same,TGI,CCRF-CEM leukemia,77.1 µM
same,TGI,OVCAR-4 ovarian,> 100 µM
same,TGI,IGROV1 ovarian,> 100 µM
same,TGI,SK-MEL-5 melanoma,53.5 µM
